Laboratory results as given in publication PMC11748363, “Antimicrobial and Antiproliferative Properties of 2‐Phenyl‐N‐(Pyridin‐2‐yl)acetamides” (Chemical Biology & Drug Design, 2025).
pIC50: −log10 of the molar value. Values after ≈ are worked out from the molar mass of the structure shown. Like-named read-outs stand apart in the source and are kept apart here.

Experiments:
[1] = system: Staphylococcus aureus subsp. aureus CCM 4750, ATCC 43300 (MRSA); test: Antibacterial microdilution broth MIC, MRSA; format: cell-based; settings: Staphylococcus aureus
[2] = system: Klebsiella pneumoniae CCM 4415, ATCC 10031; test: Antibacterial microdilution broth MIC, KP
[3] = system: Mycolicibacterium smegmatis DSM 43465; test: Antimycobacterial microdilution broth MIC (resazurin), M. smegmatis; format: cell-based; settings: DSM43465, read-out: MIC M. smegmatis
[4] = system: Candida parapsilosis CCM 8260, ATCC 22019; test: Antifungal microdilution broth MIC, CP; settings: Lodderomyces parapsilosis
[5] = system: Acinetobacter baumannii DSM 30007, ATCC 19606; test: Antibacterial microdilution broth MIC, ACI; format: cell-based
[6] = system: Aspergillus flavus CCM 8363; test: Antifungal microdilution broth MIC, AFla
[7] = system: Mycobacterium tuberculosis H37Ra; test: Antimycobacterial microdilution broth MIC (resazurin), Mtb H37Ra; format: cell-based; settings: for MIC: Mycobacterium tuberculosis, H37RA, read-out: MIC Mtb H37Ra
[8] = system: Mycolicibacterium aurum DSM 43999; test: Antimycobacterial microdilution broth MIC (resazurin), M. aurum; format: cell-based; settings: DSM43999, read-out: MIC M. aurum
[9] = system: Candida albicans CCM 8320, ATCC 24433; test: Antifungal microdilution broth MIC, CA
[10] = system: Staphylococcus aureus CCM 4223, ATCC 29213; test: Antibacterial microdilution broth MIC, SA; format: cell-based; settings: Staphylococcus aureus
[11] = system: Lichtheimia corymbifera CCM 8077; test: Antifungal microdilution broth MIC, LC
[12] = system: Aspergillus fumigatus ATCC 204305; test: Antifungal microdilution broth MIC, AF
[13] = system: Pseudomonas aeruginosa CCM 3955, ATCC 27853; test: Antibacterial microdilution broth MIC, PA; format: cell-based
[14] = system: Escherichia coli CCM 3954, ATCC 25922; test: Antibacterial microdilution broth MIC, EC; format: cell-based
[15] = system: Enterococcus faecalis CCM 4224, ATCC 29212; test: Antibacterial microdilution broth MIC, EF; format: cell-based
[16] = system: Staphylococcus epidermidis CCM 4418, ATCC 12228; test: Antibacterial microdilution broth MIC, SE; format: cell-based
HepG2 cell line = test: Cytotoxicity CellTiter 96, HepG2; format: cell-based, human; settings: Homo sapiens, HepG2, 24 h, 24 h incubation; ^c compound precipitated in the testing medium; ^d over the limit of tested concentrations
[17] = system: Trichophyton interdigitale CCM 8377, ATCC 9533; test: Antifungal microdilution broth MIC, TI; settings: Trichophyton interdigitale
[18] = system: Candida krusei CCM 8271, ATCC 6258; test: Antifungal microdilution broth MIC, CK; settings: Pichia kudriavzevii
[19] = system: Candida tropicalis CCM 8264, ATCC 750; test: Antifungal microdilution broth MIC, CT
[20] = CCM8363, 24 h, read-out: MIC AFla 24h
[21] = CCM8363, 48 h, read-out: MIC AFla 48h
[22] = CCM8077, 24 h, read-out: MIC LC 24h
[23] = CCM8077, 48 h, read-out: MIC LC 48h
[24] = ATCC204305, 24 h, read-out: MIC AF 24h
[25] = ATCC204305, 48 h, read-out: MIC AF 48h

| Compound | MIC ([1]; 24 h, read-out: MIC MRSA 24h) [µM] | MIC ([1]; 48 h, read-out: MIC MRSA 48h) [µM] | MIC KP 24h [2] [µM] | MIC KP 48h [2] [µM] | MIC [3] [µg/mL] | MIC ([4]; 24 h, read-out: MIC CP 24h) [µM] | MIC ([4]; 48 h, read-out: MIC CP 48h) [µM] | MIC ([5]; 24 h, read-out: MIC ACI 24h) [µM] | MIC ([5]; 48 h, read-out: MIC ACI 48h) [µM] | MIC [6, 20] [µM] | MIC [6, 21] [µM] | MIC ([7]; Calculated from MIC (μg/mL)) [µM] | MIC [7] [µg/mL] | MIC [8] [µg/mL] | MIC ([9]; 24 h, read-out: MIC CA 24h) [µM] | MIC ([9]; 48 h, read-out: MIC CA 48h) [µM] | MIC ([10]; 24 h, read-out: MIC SA 24h) [µM] | MIC ([10]; 48 h, read-out: MIC SA 48h) [µM] | MIC [11, 22] [µM] | MIC [11, 23] [µM] | further results |
| --- | --- | --- | --- | --- | --- | --- | --- | --- | --- | --- | --- | --- | --- | --- | --- | --- | --- | --- | --- | --- | --- |
| COc1ccccc1CC(=O)Nc1ccccn1 [Compound 4] | > 500 | > 500 | > 500 | > 500 | > 500 | > 500 | > 500 | > 500 | > 500 | > 500 | > 500 | 516 | 125 | 250 (≈ 1030 µM) | > 500 | > 500 | > 500 | > 500 | > 500 | > 500 | MIC [12, 24]: > 500 µM; MIC [12, 25]: > 500 µM; MIC ([13]; 24 h, read-out: MIC PA 24h): > 500 µM; MIC ([13]; 48 h, read-out: MIC PA 48h): > 500 µM; MIC ([14]; 24 h, read-out: MIC EC 24h): > 500 µM; MIC ([14]; 48 h, read-out: MIC EC 48h): > 500 µM; MIC ([15]; 24 h, read-out: MIC EF 24h): > 500 µM; MIC ([15]; 48 h, read-out: MIC EF 48h): > 500 µM; MIC ([16]; 24 h, read-out: MIC SE 24h): > 500 µM; MIC ([16]; 48 h, read-out: MIC SE 48h): > 500 µM; pIC50 (HepG2 cell line): < 3.00; MIC ([17]; 72 h, read-out: MIC TI 72h): > 500 µM; MIC ([17]; 120 h, read-out: MIC TI 120h): > 500 µM; MIC ([18]; 24 h, read-out: MIC CK 24h): > 500 µM; MIC ([18]; 48 h, read-out: MIC CK 48h): > 500 µM; MIC ([19]; 24 h, read-out: MIC CT 24h): > 500 µM; MIC ([19]; 48 h, read-out: MIC CT 48h): > 500 µM |
| O=C(Cc1ccccc1C(F)(F)F)Nc1ccccn1 [Compound 22] | > 500 | > 500 | > 500 | > 500 | 250 (≈ 892 µM) | > 500 | > 500 | > 500 | > 500 | > 500 | > 500 | 446 | 125 | 250 (≈ 892 µM) | > 500 | > 500 | > 500 | > 500 | 500 (≈ 140 µg/mL) | > 500 | MIC [12, 24]: 500 µM (≈ 140 µg/mL); MIC [12, 25]: > 500 µM; MIC ([13]; 24 h, read-out: MIC PA 24h): > 500 µM; MIC ([13]; 48 h, read-out: MIC PA 48h): > 500 µM; MIC ([14]; 24 h, read-out: MIC EC 24h): > 500 µM; MIC ([14]; 48 h, read-out: MIC EC 48h): > 500 µM; MIC ([15]; 24 h, read-out: MIC EF 24h): > 500 µM; MIC ([15]; 48 h, read-out: MIC EF 48h): > 500 µM; MIC ([16]; 24 h, read-out: MIC SE 24h): > 500 µM; MIC ([16]; 48 h, read-out: MIC SE 48h): > 500 µM; pIC50 (HepG2 cell line): 3.35; MIC ([17]; 72 h, read-out: MIC TI 72h): 500 µM (≈ 140 µg/mL); MIC ([17]; 120 h, read-out: MIC TI 120h): 500 µM (≈ 140 µg/mL); MIC ([18]; 24 h, read-out: MIC CK 24h): > 500 µM; MIC ([18]; 48 h, read-out: MIC CK 48h): > 500 µM; MIC ([19]; 24 h, read-out: MIC CT 24h): > 500 µM; MIC ([19]; 48 h, read-out: MIC CT 48h): > 500 µM |
| O=C(Cc1cccc(Cl)c1)Nc1cccc(Cl)n1 [Compound 18] | > 500 | > 500 | > 500 | > 500 | > 500 | > 500 | > 500 | > 500 | > 500 | > 500 | > 500 | 55.6 | 15.6 | 62.5 (≈ 222 µM) | > 500 | > 500 | > 500 | > 500 | > 500 | > 500 | SI (selectivity index) ([7]; SI = HepG2 IC50 (μM)/MIC MtbH37Ra (μM), calculated for compounds with MIC ≤ 31.25 μg/mL): > 1.8; MIC [12, 24]: > 500 µM; MIC [12, 25]: > 500 µM; MIC ([13]; 24 h, read-out: MIC PA 24h): > 500 µM; MIC ([13]; 48 h, read-out: MIC PA 48h): > 500 µM; MIC ([14]; 24 h, read-out: MIC EC 24h): > 500 µM; MIC ([14]; 48 h, read-out: MIC EC 48h): > 500 µM; MIC ([15]; 24 h, read-out: MIC EF 24h): > 500 µM; MIC ([15]; 48 h, read-out: MIC EF 48h): > 500 µM; MIC ([16]; 24 h, read-out: MIC SE 24h): > 500 µM; MIC ([16]; 48 h, read-out: MIC SE 48h): > 500 µM; pIC50 (HepG2 cell line): < 4.00; MIC ([17]; 72 h, read-out: MIC TI 72h): 500 µM (≈ 141 µg/mL); MIC ([17]; 120 h, read-out: MIC TI 120h): 500 µM (≈ 141 µg/mL); MIC ([18]; 24 h, read-out: MIC CK 24h): > 500 µM; MIC ([18]; 48 h, read-out: MIC CK 48h): > 500 µM; MIC ([19]; 24 h, read-out: MIC CT 24h): > 500 µM; MIC ([19]; 48 h, read-out: MIC CT 48h): > 500 µM |
